Measurements as given in ChEMBL document CHEMBL3045549, “Solvent-free, green and efficient synthesis of pyrano[4, 3-b]pyrans by grinding and their biological evaluation as antitumor and antioxidant agents” (Med Chem Res, 2013).

Assays:
[1] = tested on: Radical scavenging activity; test: Antioxidant activity assessed as inhibition of DPPH radical after 30 mins by spectrophotometric analysis; type: functional
[2] = tested on: MCF7; test: Cytotoxicity against human MCF7 cells after 96 hrs by MTT assay; type: functional, cell-based; settings: MCF7, 96 h

Row | Structure (SMILES) | IC50 [1] [µM] | IC50 [2] [µM]
1 | Cc1cc2c(c(=O)o1)C(c1c[nH]c3ccc(C#N)cc13)C(C#N)=C(N)O2 (configuration not stated) | 567 | 7
2 | Cc1cc2c(c(=O)o1)C(c1ccc(Cl)cc1)C(C#N)=C(N)O2 (configuration not stated) | 487 | 32
3 | Cc1cc2c(c(=O)o1)C(c1ccccc1)C(C#N)=C(N)O2 (configuration not stated) | 769 | 46
4 | O=C1O[C@H]([C@@H](O)CO)C(O)=C1O [ASCORBIC ACID] | 106 | –
5 | Cc1cc2c(c(=O)o1)C(c1ccc([N+](=O)[O-])cc1)C(C#N)=C(N)O2 (configuration not stated) | 816 | 42
6 | Cc1ccc(C2C(C#N)=C(N)Oc3cc(C)oc(=O)c32)cc1 (configuration not stated) | 634 | 54
7 | Cc1cc2c(c(=O)o1)C(c1c[nH]c3ccccc13)C(C#N)=C(N)O2 (configuration not stated) | 339 | 10
8 | COc1ccc(C2C(C#N)=C(N)Oc3cc(C)oc(=O)c32)cc1 (configuration not stated) | 520 | 57
9 | Cc1cc2c(c(=O)o1)C(c1ccc(C)s1)C(C#N)=C(N)O2 (configuration not stated) | 943 | 22
10 | Cc1cc2c(c(=O)o1)C(c1ccc(Br)cc1)C(C#N)=C(N)O2 (configuration not stated) | 512 | 35
11 | Cc1cc2c(c(=O)o1)C(c1ccco1)C(C#N)=C(N)O2 (configuration not stated) | 228 | 27
12 | Cc1cc2c(c(=O)o1)C(c1cccs1)C(C#N)=C(N)O2 (configuration not stated) | 739 | 15
13 | Cc1cc2c(c(=O)o1)C(c1c[nH]c3ccc(Br)cc13)C(C#N)=C(N)O2 (configuration not stated) | 440 | 5
14 | Cc1cc2c(c(=O)o1)C(c1ccc(Cl)s1)C(C#N)=C(N)O2 (configuration not stated) | 616 | 12
